IC50 data for eight compounds are collected here from BindingDB's records for doi:10.1016/0960-894X(96)00174-6 (n/a, 1996).

Structures are written as SMILES.

For the assay, the target named is T1, 5-hydroxytryptamine receptor 2C (Homo sapiens, UniProt P28335).
T1 sequence (P28335 whole entry): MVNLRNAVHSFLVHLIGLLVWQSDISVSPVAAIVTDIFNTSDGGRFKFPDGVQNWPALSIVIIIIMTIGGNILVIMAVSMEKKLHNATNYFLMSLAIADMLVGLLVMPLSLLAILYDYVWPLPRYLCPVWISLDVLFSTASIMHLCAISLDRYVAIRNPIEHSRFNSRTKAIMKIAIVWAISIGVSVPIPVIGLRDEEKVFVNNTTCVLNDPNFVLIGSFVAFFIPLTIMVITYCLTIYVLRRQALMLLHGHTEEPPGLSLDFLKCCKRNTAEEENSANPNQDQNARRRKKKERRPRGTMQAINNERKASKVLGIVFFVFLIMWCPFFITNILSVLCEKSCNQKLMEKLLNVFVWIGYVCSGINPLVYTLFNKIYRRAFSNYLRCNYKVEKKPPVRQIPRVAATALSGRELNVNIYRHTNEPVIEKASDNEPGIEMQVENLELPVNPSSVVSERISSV
As to the kind of experiment: ChEBML_3050. The text has this:
Binding affinity towards 5-hydroxytryptamine 2C receptor by displacement of [3H]N-methyl-mesulergine
The term IC50 denotes the concentration needed to halve the response being measured. A lower IC50 goes with higher potency. As for `CCCN1CCN(Cc2ccccc2)CC12COc1cccc(OC)c1C2` (stereo not drawn), the IC50 was determined as 38.9 µM.
In turn, `CCCN1CCN(CCCCN2C(=O)CC3(CCCC3)CC2=O)CC12COc1cccc(OC)c1C2` (stereo not drawn) displayed an IC50 of 30.9 µM.
Consider `COc1cccc2c1CC1(CCCN1CCCCN1C(=O)CC3(CCCC3)CC1=O)CO2` (racemic) [(+/-) 8-{4-[5-methoxyspiro[3,4-dihydro-2H-chromene-3,2'-(tetrahydro-1'H-pyrrole)]-1-yl]butyl}-8-azaspiro[4.5]decane-7,9-dione], for which inhibition was half-maximal at 10.5 µM (IC50).
As to `COc1cccc2c1CC(CNCCCCN1C(=O)CC3(CCCC3)CC1=O)CO2` (stereo not drawn), half-maximal inhibition (IC50) was put at 0.169 µM.
In turn, `O=C1CC2(CCCC2)CC(=O)N1CCCCNCC1COc2ccccc2C1` (stereo not drawn) showed an IC50 of 1.23 µM.
The value for `CCCN1CCN(CCC)C2(COc3cccc(OC)c3C2)C1` (stereo not drawn) was 468 µM; that for `CCCN(CCCCN1C(=O)CC2(CCCC2)CC1=O)CC1COc2cccc(OC)c2C1` (stereo not drawn) was 3.16 µM; that for `CCCN(CCC)CC1(N(CCC)CCC)COc2cccc(OC)c2C1` (stereo not drawn) was 30.2 µM.
